pKd, pKi: −log10 of the molar value. Like-named read-outs stand apart in the source and are kept apart here.
How the values were obtained:
[1] = cited from earlier work
cannabinoid receptor [2] = biological target: T1, cannabinoid receptor (Rattus norvegicus, UniProt P20272); experiment: Ligand binding assay with [³H]7, centrifugation assay on synaptosomal membrane preparation
T1 construct: a synaptosomal membrane preparation derived from rat whole brain, without brainstem; from tissue; host or cells: rat whole brain without brainstem, synaptosomal membranes

[3] = Discrimination tests / in vivo experiment comparing (3), (7) and Δ¹-THC
cannabinoid receptor [4] = biological target: T1, cannabinoid receptor; details: cited from earlier work
[5] = cited from earlier work; remark: listed apart in the source
[6] = pigeons; cited from earlier work
[7] = in vivo; cited from earlier work
[8] = Solubility of drug in BSA vehicle for binding assay; details: at concentrations above 5 uM in 5 mg/ml BSA

T1 sequence (P20272 whole entry): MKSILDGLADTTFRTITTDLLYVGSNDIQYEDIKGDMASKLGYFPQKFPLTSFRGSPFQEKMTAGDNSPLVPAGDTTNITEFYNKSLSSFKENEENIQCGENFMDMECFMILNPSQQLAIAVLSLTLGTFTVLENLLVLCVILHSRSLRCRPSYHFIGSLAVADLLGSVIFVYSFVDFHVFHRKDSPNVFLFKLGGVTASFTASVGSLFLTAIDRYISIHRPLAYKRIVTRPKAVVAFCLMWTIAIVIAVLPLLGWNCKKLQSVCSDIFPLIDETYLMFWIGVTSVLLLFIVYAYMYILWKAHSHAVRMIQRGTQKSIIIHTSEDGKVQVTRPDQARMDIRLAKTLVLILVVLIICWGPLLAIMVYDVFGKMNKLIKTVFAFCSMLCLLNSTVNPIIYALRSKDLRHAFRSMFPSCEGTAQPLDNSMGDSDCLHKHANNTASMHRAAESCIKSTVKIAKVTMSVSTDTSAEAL

For “7-hydroxyhexahydrocannabinols [Compound 5b]”, the “times more active than Δ¹-THC in discrimination tests” value ([1]; depending on the animal used (pigeon or rat) and on the timing of measurement) is given as 3-17 times and the “activity in discrimination tests relative to axial epimer (6b)” value ([1]; rat, in vivo) is given as “considerably more active”.
In the case of `CCCCCCC(C)(C)c1cc(O)c2c(c1)OC(C)(C)[C@@H]1CC=C(CO)C[C@@H]21` [Compound 3], the pKi (cannabinoid receptor [2]) is listed as 9.73, the “activity in the discrimination tests, (3) versus (7)” value [3] is listed as “essentially equivalent in activity” and the “potency ratio of 3 to 4 for binding to the cannabinoid receptor” value (cannabinoid receptor [4]) is listed as “circa 1500”. For the same molecule, the “competition for the specific binding of [³H]1” value (cannabinoid receptor [4]; membranes from rat brain) was “completes fully”, the pKi (cannabinoid receptor [4]; read-out: K, heterologous displacement of [³H]1, membranes from rat brain) was 9.63 and the “times more potent than Δ¹-THC in pharmacological tests” value ([5]; various animal species) was 100-800 times. The “times more potent than Δ¹-THC in drug discrimination” value [6] was 80 times.
For `CCCCCCC(C)(C)c1cc(O)c2c(c1)OC(C)(C)[C@H]1CC=C(CO)C[C@H]21` [Compound 4], the pKi (cannabinoid receptor [2]) is listed as 6.33, the “fold less potent than its enantiomer compound 3 (HU-210) in binding” value (cannabinoid receptor [2]; displacement of [³H]7) is listed as 2500 fold and the “potency relative to (3) in in vivo pharmacological tests” value ([5]; in vivo) is listed as “several thousand times less potent”.
In the case of `CCCCCc1cc(O)c2c(c1)OC(C)(C)C1CCC(C)CC21` (stereo not drawn) [Compound 5a], the “cannabimimetic activity relative to axial epimer (6a)” value [7] is given as “more active”.
In the case of `CCCCCCC(C)(C)c1cc(O)c2c(c1)OC(C)(C)C1CCC(CO)CC21` (stereo not drawn) [Compound 7, 7-hydroxy-hexahydrocannabinol-5'-dimethyl heptyl homologue], the “times more potent than (3) in the binding experiments” value (cannabinoid receptor [2]) was “about 4 times”, the “times more potent than Δ¹-THC on binding” value (cannabinoid receptor [2]) was “about 1000 times” and the “binding potency compared with CP-55940” value (cannabinoid receptor [2]; Fig. 1) was “more potent than CP-55940”. The binding capacity (cannabinoid receptor [2]; homologous displacement experiments with [³H]7) was 4.41 ± 0.08 pmol/mg protein, the pKd (cannabinoid receptor [2]; homologous displacement studies, [³H]7, rat whole brain synaptosomal membranes) was 10.35 and the “activity in the discrimination tests, (3) versus (7)” value [3] was “essentially equivalent in activity”. The “times more potent than Δ¹-THC in the in vivo experiment” value [3] was 125 times.
In the case of `CCCCCc1cc(O)c2c(c1)OC(C)(C)[C@@H]1CCC(C)=C[C@@H]21` [Δ¹-THC, Δ-tetrahydrocannabonol], the solubility in vehicle [8] was “partial insolubility”.
